A short description of series [1]: Aqueous stability in HBSS buffer at 40° C. (HPLC-UV). Conditions: 3% wt/wt or 0.4% wt/wt in HBSS buffer, glass vials, 40° C., HPLC-UV, in % (unit assumed). It counts as physicochemical. Here is the method: An important aspect of formulating a stable topical product. Data in Table 4 below gives 1 month and 3 month stability data at 40° C. Compounds were dissolved at 3% wt/wt or 0.4% wt/wt (if 3% was not possible) in HBSS buffer and stored in glass vials at temperature. Samples were subsequently analyzed by HPLC-UV.

Series [2] concerns bovine serum albumin (BSA). Put plainly: In vitro protein carbamylation assay (14C-potassium cyanate, scintillation counting). The format is biochemical. To be noted: 10 mM nucleophile, 75 μM BSA, 25 μM 14C-Potassium Cyanate, 37° C., 72 hours, n=3. Here is the method:
The tests were performed as described below. 200 μL of a 0.5% BSA solution, 200 μL of test solution and 100 μL of a 5 μCi/mL 14 C-Potassium Cyanate solution was mixed in an Eppendorf tube (corresponding to a final concentration of 75 μM BSA, 25 μM 14 C-Potassium Cyanate, and 10 mM nucleophile). Samples run in triplicates (n=3). The Eppendorf tubes were incubated at 37° C. for 72 hours.
After incubation a volume of 100 μL of each sample was transferred to a new Eppendorf tube containing 100 μL of a 10% trichloroacetic acid (TCA) and kept at 4° C. overnight (for precipitation of BSA). Subsequently, the precipitated BSA was separated from the buffer by centrifugation (10000 rpm, 30 seconds). The supernatant was removed and the BSA pellet 10 was resuspended in 200 μL of a 10% solution of cold TCA (4° C.). The pellet was recovered by centrifugation (10000 rpm, 30 seconds) and supernatant was discarded. The BSA pellet was resuspended in 100 μL purified water (MilliQ) and transferred to a scintillation vial. The Eppendorf tube (previously containing the BSA pellet) was rinsed with an additional 100 μL purified water which al was transferred to the relevant scintillation vial.

Series [3] in a line: Skin homogenate study (degradation half-life, LC-MS/MS). It counts as in vitro ADME, human. To be noted: pooled human skin homogenate, 37° C., compound working solution 40 μg/mL mixed with equal volume of homogenate. Here is the method:
To identify which of the dipeptides was readily subject to degradation by proteases and other cell processes in the skin, a number of compounds where tested in a skin homogenate study as described below and the results are listed in table 3.
Dermatomed human skin from multiple skin donors was pooled, homogenized, and adjusted to a tissue concentration of 100 mg tissue per mL of homogenate. The homogenate was used immediately following preparation without any additional freeze/thaw cycles. Working solutions of each compound were prepared in Dulbecco's phosphate-buffered saline (DPBS) at 40 μg/mL. All solutions were pre-heated to 37° C. Equal volumes of skin homogenate and compound working solution were combined, mixed, held at 37° C., and sampled at 0, 15, 30, 60, 120, and 240 minutes. Samples were quenched with acidic acetonitrile, centrifuged, and prepared for LC-MS/MS analysis. Peak areas of each compound at each time-point were determined by LC-MS/MS.
The individual half-life of each dipeptide was determined.
The nature of the experiment should be considered indicative of the relative stability of each of the compounds rather than an absolute correlation to what would happen in vivo. The process of homogenizing the skin is likely to greatly accelerate the degradation. However, it is clear that there is substantial variation in the relative rates for each dipeptide. (See Table 3)

Each structure is given as a SMILES string. Non-standard residues stand in square brackets, D forms with d. Residues, ends and D or L forms follow the SMILES beside them. Sar = CNCC(=O)O

As to `NCCC(=O)N[C@@H](Cc1c[nH]cn1)C(=O)O` [Ala(b)-His (L-Carnosine)], in series [1], the “1 month aqueous stability at 40° C.” value worked out at 98.4 and the “3 month aqueous stability at 40° C.” value came out at 99.7. Further, the “Degree of carbamylation (% relative to HBSS control)” value in series [2] was 72.63 % relative to HBSS control.

For the compound `C[C@H](N)C(=O)N[C@@H](C)C(=O)O` [Ala-Ala] (H-Ala-Ala-OH), the “Half life in skin homogenate” value in series [3] was determined as 0.383 h.

As to `C[C@H](N)C(=O)N[C@H](C)C(=O)O` [Ala-D-Ala] (H-Ala-[dA]-OH), the “Half life in skin homogenate” value in series [3] is more than 8 h.

Consider `C[C@@H](N)C(=O)NCC(=O)O` [Ala-Gly (D)] (H-[dA]-Gly-OH), for which the “Half life in skin homogenate” value in series [3] was more than 8 h.

On to `C[C@H](N)C(=O)NCC(=O)O` [Ala-Gly] (H-Ala-Gly-OH), for which, in series [3], the “Half life in skin homogenate” value stood at 1 h.

With `C[C@H](N)C(=O)O` [Alanine, reference compound], the “Degree of carbamylation (% relative to HBSS control)” value in series [2] is on record as 93.54 % relative to HBSS control.

In the case of `Cl.N=C(N)NCCC[C@H](N)C(=O)O` [Arg*HCl, reference compound], the “Degree of carbamylation (% relative to HBSS control)” value in series [2] was 66.1 % relative to HBSS control.

As to `N=C(N)NCCC[C@H](N)C(=O)O` [Arg, Arginine, reference compound], the “Degree of carbamylation (% relative to HBSS control)” value in series [2] is reported as 52.4 % relative to HBSS control.

On to `N[C@@H](CC(=O)O)C(=O)N[C@@H](Cc1ccccc1)C(=O)O` [Asp-Phe] (H-Asp-Phe-OH), for which the “Half life in skin homogenate” value in series [3] stood at 1.28 h.

Turning to `COC(=O)[C@H](Cc1ccccc1)NC(=O)[C@@H](N)CC(=O)O` [Aspartame] (H-Asp-Phe-OMe), the “Degree of carbamylation (% relative to HBSS control)” value in series [2] is reported as 30.4 % relative to HBSS control.

Consider `CC(C)C[C@H](NC(=O)[C@@H](O)[C@H](N)Cc1ccccc1)C(=O)O` [Bestatin, reference compound], for which, in series [2], the “Degree of carbamylation (% relative to HBSS control)” value is given as 53.4 % relative to HBSS control.

Turning to `NC(=O)NCCC[C@H](N)C(=O)O` [Citrulline, reference compound], the “Degree of carbamylation (% relative to HBSS control)” value in series [2] is listed as 81.7 % relative to HBSS control.

`CN(CC(=O)O)C(=N)N` [Creatine, reference compound]: the “Degree of carbamylation (% relative to HBSS control)” value in series [2] is recorded as 103.92 % relative to HBSS control.

For `NC(=O)CC[C@H](N)C(=O)O` [Glutamine, reference compound], in series [2], the “Degree of carbamylation (% relative to HBSS control)” value is 74.39 % relative to HBSS control.

Consider `C[C@H](NC(=O)CN)C(=O)O` [Gly-Ala] (H-Gly-Ala-OH), for which the “Degree of carbamylation (% relative to HBSS control)” value in series [2] is on record as 35.27 % relative to HBSS control.

For `NCC(=O)N[C@@H](CC(=O)O)C(=O)O` [Gly-Asp] (H-Gly-Asp-OH), the “Half life in skin homogenate” value in series [3] is more than 8 h.

As to `NCC(=O)N[C@@H](CCC(N)=O)C(=O)O` [Gly-Gln] (H-Gly-Gln-OH), the “Degree of carbamylation (% relative to HBSS control)” value in series [2] was 32.99 % relative to HBSS control.

Regarding `NCC(=O)N[C@@H](CCC(=O)O)C(=O)O` [Gly-Glu] (H-Gly-Glu-OH), in series [1], the “1 month aqueous stability at 40° C.” value stood at 99.0 and the “3 month aqueous stability at 40° C.” value is given as 99.7.

`NCC(=O)NCC(=O)O` [Gly-Gly] (H-Gly-Gly-OH): the “Half life in skin homogenate” value in series [3] is more than 8 h.

In the case of `NCC(=O)N[C@@H](Cc1cnc[nH]1)C(=O)O` [Gly-His] (H-Gly-His-OH), in series [1], the “1 month aqueous stability at 40° C.” value turned out to be 99.8 and the “3 month aqueous stability at 40° C.” value is recorded as 79.3. Moreover, the “Half life in skin homogenate” value in series [3] is more than 8 h. Besides, in series [2], the “Degree of carbamylation (% relative to HBSS control)” value is recorded as 22.6 % relative to HBSS control.

`NCC(=O)N1CCC[C@H]1C(=O)O` [Gly-Pro] (H-Gly-Pro-OH): in series [3], the “Half life in skin homogenate” value is more than 8 h.

For `CN(CC(=O)O)C(=O)CN` [Gly-Sar] (H-Gly-[Sar]-OH), the “Half life in skin homogenate” value in series [3] is more than 8 h.

Take `NCC(=O)NC(CO)C(=O)O` (stereo not shown) [Gly-Ser]: in series [1], the “1 month aqueous stability at 40° C.” value is 97.8 and the “3 month aqueous stability at 40° C.” value was determined as 70.7. The “Degree of carbamylation (% relative to HBSS control)” value in series [2] is 33.1 % relative to HBSS control.

As to `CC(C)[C@H](NC(=O)CN)C(=O)O` [Gly-Val] (H-Gly-Val-OH), the “Half life in skin homogenate” value in series [3] is 0.8 h.

Take `CC(C)C[C@H](NC(=O)[C@@H](N)Cc1cnc[nH]1)C(=O)O` [His-leu] (H-His-Leu-OH): the “Degree of carbamylation (% relative to HBSS control)” value in series [2] is recorded as 27.18 % relative to HBSS control.

On to `N[C@@H](Cc1c[nH]cn1)C(=O)O` [Histidine, reference compound], for which the “Degree of carbamylation (% relative to HBSS control)” value in series [2] is on record as 61.1 % relative to HBSS control.

In the case of `CC[C@H](C)[C@H](N)C(=O)N1CCC[C@H]1C(=O)O` [Ile-Pro] (H-Ile-Pro-OH), in series [1], the “1 month aqueous stability at 40° C.” value amounted to 99.1 and the “3 month aqueous stability at 40° C.” value was found to be 102.0. In series [3], the “Half life in skin homogenate” value stood at 2.25 h. Further, in series [2], the “Degree of carbamylation (% relative to HBSS control)” value is listed as 41.4 % relative to HBSS control.

In the case of `NCCCC[C@H](N)C(=O)N1CCC[C@H]1C(=O)O` [Lys-Pro] (H-Lys-Pro-OH), the “Half life in skin homogenate” value in series [3] came to 0.867 h. Moreover, in series [2], the “Degree of carbamylation (% relative to HBSS control)” value is 28.6 % relative to HBSS control.

On to `NCCCC[C@H](N)C(=O)O` [Lysine, reference compound], for which the “Degree of carbamylation (% relative to HBSS control)” value in series [2] is on record as 71.63 % relative to HBSS control.

On to `NCCNCC(=O)O` [N-β-aminoethyl-Gly], for which the “Degree of carbamylation (% relative to HBSS control)” value in series [2] is 29.7 % relative to HBSS control.

Take `O=C(O)[C@@H]1CCCN1C(=O)[C@@H]1CCCN1` [Pro-Pro] (H-Pro-Pro-OH): the “Half life in skin homogenate” value in series [3] is 1.93 h.

Turning to `O=C(O)[C@H](CO)NC(=O)[C@@H]1CCCN1` [Pro-Ser] (H-Pro-Ser-OH), in series [1], the “1 month aqueous stability at 40° C.” value worked out at 78.1 and the “3 month aqueous stability at 40° C.” value worked out at 49.0. Moreover, in series [3], the “Half life in skin homogenate” value was found to be 4.73 h. In addition, the “Degree of carbamylation (% relative to HBSS control)” value in series [2] was 41.9 % relative to HBSS control.

For the compound `N[C@@H](CO)C(=O)N1CCC[C@H]1C(=O)O` [Ser-Pro] (H-Ser-Pro-OH), in series [1], the “1 month aqueous stability at 40° C.” value was 95.5 and the “3 month aqueous stability at 40° C.” value came out at 88.5. For the same compound, the “Half life in skin homogenate” value in series [3] came out at 0.683 h. Moreover, in series [2], the “Degree of carbamylation (% relative to HBSS control)” value is given as 26.4 % relative to HBSS control.

In the case of `NCCS(=O)(=O)O` [Taurine, reference compound], in series [2], the “Degree of carbamylation (% relative to HBSS control)” value is recorded as 58.17 % relative to HBSS control.

Take `NC(=O)CC(NC(=O)C(N)Cc1c[nH]c2ccccc12)C(=O)O` (stereo not drawn) [Trp-Asn] (H-Trp-Asn-OH; configuration not given here): the “Half life in skin homogenate” value in series [3] was 0.75 h.

In the case of `N[C@@H](Cc1c[nH]c2ccccc12)C(=O)NCC(=O)O` [Trp-Gly] (H-Trp-Gly-OH), in series [3], the “Half life in skin homogenate” value turned out to be 1.07 h.

Turning to `NC(Cc1c[nH]c2ccccc12)C(=O)N1CCCC1C(=O)O` (stereo not shown) [Trp-Pro], the “Half life in skin homogenate” value in series [3] stood at 0.567 h.

Regarding `NC(N)=NCCC[C@H](NC(=O)[C@@H](N)Cc1ccc(O)cc1)C(=O)O` [Tyr-Arg], the “Degree of carbamylation (% relative to HBSS control)” value in series [2] is recorded as 25.96 % relative to HBSS control.

As to `N[C@@H](Cc1ccc(O)cc1)C(=O)N1CCC[C@H]1C(=O)O` [Tyr-Pro] (H-Tyr-Pro-OH), in series [3], the “Half life in skin homogenate” value amounted to 0.483 h. Further, the “Degree of carbamylation (% relative to HBSS control)” value in series [2] is on record as 32.8 % relative to HBSS control.

The values above are taken from patent publication US20250222063A1, “TOPICAL FORMULATION FOR USE IN THE TREATMENT OR PREVENTION OF DRY ITCHY SKIN” (MC2 THERAPEUTICS LTD, priority 2022, published 2025).
